In brackets after ≈: the same amount, converted by molar mass.
Key:
[1] = target: T1, C5a receptor (Homo sapiens, UniProt P21730); details: cited from earlier work
T1 sequence (P21730 1-350): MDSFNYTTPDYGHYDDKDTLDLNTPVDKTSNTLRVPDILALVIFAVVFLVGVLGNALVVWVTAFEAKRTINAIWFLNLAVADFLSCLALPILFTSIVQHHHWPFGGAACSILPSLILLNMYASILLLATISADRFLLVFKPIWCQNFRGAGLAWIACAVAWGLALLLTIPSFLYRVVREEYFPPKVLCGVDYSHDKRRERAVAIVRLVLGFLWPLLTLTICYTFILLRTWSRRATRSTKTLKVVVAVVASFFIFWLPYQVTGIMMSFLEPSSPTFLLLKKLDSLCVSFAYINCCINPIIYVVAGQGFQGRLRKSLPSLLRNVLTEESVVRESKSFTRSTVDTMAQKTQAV

[2] = system: C5a induced neutropenia; assay: C5a induced neutropenia in gerbils (Example 35); format: in vivo, gerbils (Meriones unguiculatus); details: gerbil
Source text: C5a induced neutropenia is a model for shock induced diseases (e.g. septic shock), where amongst others the systemic role of C5a (blood pressure decrease, neutropenia) plays an important role. The reason for the decrease of the neutrophils in the circulation is their binding to the vessel walls due to the C5a stimulus. These processes of neutrophil recruitment are playing an important role in many other diseases like reperfusion injury. […]
Male gerbils (Meriones unguiculatus) are anaesthesized i.p. with ketamine (80 mg/kg) and xylazine (12 mg/kg). The animals are intubated and a catheter is inserted in the jugular vene and the animals are subjected to the following procedure:
1. The gerbils are pre-treated with vehicle or the compounds of the present invention 80 (3 mg/kg) or 131 (1 mg/kg) via i.v. infusion.
One minute before compound treatment a blood sample is taken.
2. 10 minutes after the infusion of the compounds the gerbils are treated i.v. with 100 μg/kg hrC5a. […]
White blood cell counts are measured with a haematology-cell-counter. […]
The differential cell count is determined as the sum of neutrophils, eosinophile, easophile, lymphocytes and monocytes from 100 cells. Then, the percentage of neutrophils in relation to all white blood cells is determined. […]

[3] = Solubility in aqueous HEPES buffer by HPLC (Example 33); format: physicochemical; details: kinetic from dmso stock
Description: To determine the solubility the compound to be measured is dissolved (e.g, […] of a 5 mM solution in DMSO) in organic solvent (e.g. 198 μl DMSO) as well as in aqueous buffer solution (e.g. 198 μl HEPES buffer). Both solutions are analyzed via analytical HPLC and the areas under the peaks are compared. The value for the organic solution is taken as 100%.

[4] = target: T2, human C5a receptor (CD88) (Homo sapiens, UniProt P21730); assay: C5a induced enzyme (glucosaminidase) release assay in RBL cells expressing the human C5a receptor (Example 28); format: cell-based; details: inhibition of C5a induced enzyme release, RBL cells with human C5aR; read-out: Activity-range (antagonistic activity, IC50 enzyme release)
T2 construct: expressed in transfected cells; host or cells: rat basophilic leukemia (RBL) cells, stably transfected
T2 sequence (P21730 1-350): T1 sequence (P21730 1-350)
In short: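 Rat basophilic leukemia (RBL) cells expressing human C5a receptor, at 2×10^6 cells/ml, primed with cytochalasin B, then incubated with test compound 10 min at 37 °C.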

[5] = target: T1, C5a receptor; details: cited from earlier work; remark: listed apart in the source
[6] = target: T1, C5a receptor; details: cited from earlier work; remark: listed apart in the source
[7] = Stability (shelf life) as solid TFA salt, RP-HPLC (Example 25); format: physicochemical; details: light, room temperature, up to 7 days
Description: The fractions containing the desired compound are lyophilized. In this way 1-40 mg of the compounds 11 and 13 are isolated as solid. Due to the basic amino groups the compounds are obtained as TFA salts. 0.5-10 mg of the solid are stored under the influence of light at room temperature to determine their stability over time.
The conditions were as follows:
FIG. 1 A): after purification via HPLC (solution in MeCN/H2O/TFA),
FIG. 1 B) after lyophilization (0 days of storage as solid)
FIG. 1 C) after 7 days of storage as solid

NC(N)=Nc1ccc(OCCc2ccccc2)c(-c2ccccc2)c1 [Compound 5]
activity [1]: 0.8 µM

CCc1ccc(N(C(=O)Nc2c(CC)c(N)cc(Cl)c2CC)[C@@H](C)c2ccc(Cl)cc2)cc1 [compound 80, (S)-3-(3-amino-5-chloro-2,6-diethyl-phenyl)-1-[1-(4-chlor-phenyl)-ethyl]-1-(4-ethyl-phenyl)-urea]
Effect on C5a induced neutropenia ([2]; 3 mg/kg i.v. infusion 10 min before 100 μg/kg hrC5a): significantly reduces C5a induced neutropenia
solubility [3]: 4 µM (≈ 1.94 µg/mL)
IC50 [4]: < 60 nM

CC(C)Cc1ccc([C@@H](C)C(=O)NCCC[N+]2(C)CCCCC2)cc1.[I-] [Compound 6]
activity in a chemotaxis assay [5]: 24 µM

CC(C)c1ccc(N(Cc2ccc(N(C)C)cc2)C(=O)Nc2c(C(C)C)cccc2C(C)C)cc1 [Compound 11, 3-(2,6-diisopropyl-phenyl)-1-(4-dimethylamino-benzyl)-1-(4-isopropyl-phenyl)-urea, reference compound]
binding affinity to the C5a receptor [6]: 100 nM
IC50 [4]: 200 to 5000 nM
Stability on storage as solid [7]: not stable

CCc1c(N)cc(Cl)c(CC)c1NC(=O)N(c1ccc(NC)cc1)[C@@H](C)c1ccc(Cl)cc1 [compound 131, (S)-3-(3-amino-5-chloro-2,6-diethyl-phenyl)-1-[1-(4-chloro-phenyl)-ethyl]-1-(4-methylamino-phenyl)-urea]
Effect on C5a induced neutropenia ([2]; 1 mg/kg i.v. infusion 10 min before 100 μg/kg hrC5a): significantly reduces C5a induced neutropenia

Reference: US8071810B2, “C5a receptor antagonists” (Jerini AG, priority 2005, dated 2011)
